Results: patent US20170135981A1, “Method for Suppressing Glucagon Secretion of an SGLT2 Inhibitor” (AstraZeneca AB, priority 2014, published 2017)

Tested on: glucagon secretion
Test: Plasma glucagon during a liquid meal tolerance test (MTT) at week 24, radioimmunoassay, randomized 24-week study
Format: in vivo, human
Conditions: summary of Table 1, added to metformin
Procedure: At the beginning of a 4-week lead-in period, all patients were switched to the nearest metformin XR dose (1,500-2,000 mg/day) for the lead-in period and for the duration of the 24-week treatment period. Patients were then randomized to receive saxagliptin 5 mg/day and dapagliflozin 10 mg/day plus metformin (SAXA+DAPA+MET), saxagliptin 5 mg/day and placebo plus metformin (SAXA+MET), or dapagliflozin 10 mg/day and placebo plus metformin (DAPA+MET) for 24 weeks. Patients were prohibited from receiving other antidiabetic medications (except for open-label rescue medications) during the screening and treatment periods. Postprandial glucose (PPG) was assessed at baseline and week 24 following the administration of a liquid meal tolerance test (MTT, 360-375 kcal; protein, 14-28.2 g; fat, 10.5-14 g; carbohydrates 42-45 g; sugars as a component of carbohydrates, 16.8-22 g, investigation-site dependent). […] The mean change from baseline in the area under the curve from 0 to 180 minutes (AUC0-180 min) was calculated for glucagon obtained during the MTT. Plasma glucagon was measured by radioimmunoassay (LINCO Research, St. Charles, Mo.). AUC0-180 min was calculated based on the trapezoidal rule from model-based estimates of the mean at each time point, including observations prior to rescue. […]

## CCOc1ccc(Cc2cc([C@@H]3O[C@H](CO)[C@@H](O)[C@H](O)[C@H]3O)ccc2Cl)cc1 [dapagliflozin]
  effect on glucagon levels (in words): increased compared to control
